According to patent US7811817B2, “Establishment of a human embryonic stem cell line using mammalian cells” (Reliance Life Sciences Pvt. Ltd., priority 2005, dated 2010):

How the values were obtained:
[1] = system: HepG2, a human hepatocarcinoma cell line; test: Exposure of HepG2 cells to carbon tetrachloride, enzyme release into supernatant (hepatotoxicity model); assay type: cell-based
[2] = system: mouse ES cell-derived hepatocytes; test: In vitro hepatotoxicity model using hepatocytes differentiated from mouse ES cells, enzyme release into supernatant; assay type: cell-based; settings: pretreatment 24 hr, 25 μM; 0.6% CCl4 for 180 minutes
Experimental: Hepatocytes were differentiated from mouse ES cells and exposed to carbon tetrachloride (0.6%) for 180 minutes in the absence and presence of N-acetylcysteine (NAC), an antioxidant (25 μM). Levels of the following enzymes were determined by biochemical methods: Panel A: SGOT; Panel B: SGPT; Panel C: ALP; and Panel D: LDH.
Mouse ES cells were differentiated into hepatocytes by the formation of EBs in a medium without LIF. After 4 days in suspension, 15-20 EBs were plated onto 35 mm culture dishes pre-coated with 1% matrigel (BD Biosciences, USA), and allowed to differentiate for 20-25 days. Concentration of growth factors, cytokines (e.g., bone morphogenetic proteins (BMP2 and BMP4), hepatocyte growth factor (HGF), acidic-fibroblast growth factor (aFGF), and basic-FGF (bFGF)) and corticosteroids (e.g., dexamethasone) were optimized for hepatic differentiation. The differentiated cells obtained were confirmed to be hepatocytes by checking the positive expression of hepatic markers by RT-PCR and immunocytochemistry. […]
The cell supernatant was used for the determination of SGPT, SGOT, ALP, and LDH levels, per the manufacturer's protocol. […] The samples were analyzed using a Konelab-20i autoanalyser (Thermo Clinical Lab Systems, Finland). The levels were expressed as units/Liter.

Compound | time of maximum release of SGOT, SGPT, ALP and LDH ([1]; 0.6% CCl4) [min] | SGOT, SGPT, ALP and LDH levels (enzyme release, hepatocyte damage) ([1]; 0.6% CCl4, exposure 30-240 minutes, cell supernatant) | effect on CCl4-induced increase in release of SGOT, SGPT, ALP and LDH [2]
ClC(Cl)(Cl)Cl [CCl4, carbon tetrachloride] | 180 | time-dependent increases | 
CC(=O)N[C@@H](CS)C(=O)O [N-acetylcysteine] |  |  | effectively blocked the increase in the release of these enzymes
